Measured values: patent publication US7419981B2, “Synergistic combinations of an alpha-2-delta ligand and a cGMP phosphodieterse 5 inhibitor” (Pfizer Inc., priority 2002, dated 2008)
Counter-ions that a name gives are not always drawn.

How the values were obtained:
[1] = tested on: CCI-induced static allodynia; assay: CCI-induced static allodynia, paw withdrawal threshold to von Frey hairs; type: in vivo, rat; conditions: for time of peak antiallodynic actions: post administration, CCI-induced static model; for blockade of static allodynia: alone; for minimum effective dose (MED), blockade of maintenance of static allodynia: administered alone, gabapentin p.o., sildenafil s.c.
Method: Male Sprague Dawley rats (200-250 g), obtained from Charles River, (Margate, Kent, U.K.) were housed in groups of 6. All animals were kept under a 12 h light/dark cycle (lights on at 07 h 00 min) with food and water ad libitum. All experiments were carried out by an observer unaware of drug treatments.
Animals were anaesthetised with isoflurane. The sciatic nerve was ligated as previously described by Bennett and Xie, 1988. Animals were placed on a homeothermic blanket for the duration of the procedure. After surgical preparation the common sciatic nerve was exposed at the middle of the thigh by blunt dissection through biceps femoris. Proximal to the sciatic trifurcation, about 7 mm of nerve was freed of adhering tissue and 4 ligatures (4-0 silk) were tied loosely around it with about 1 mm spacing. The incision was closed in layers and the wound treated with topical antibiotics.
Dose-responses to gabapentin and sildenafil were first performed alone in the CCI model. Combinations were examined following a fixed ratio design. A dose-response to each fixed dose ratio of the combination was performed. On each test day, baseline paw withdrawal thresholds (PWT) to von Frey hairs and paw withdrawal latencies (PWL) to a cotton bud stimulus were determined prior to drug treatment. Gabapentin was administered p.o. directly followed by s.c. administration of sildenafil and PWT and PWL re-examined for up to 5 h. The data are expressed at the 2 h time point for both the static and dynamic data as this timepoint represent the peak antiallodynic effects.
Static allodynia was measured using Semmes-Weinstein von Frey hairs (Stoelting, Illinois, U.S.A.). Animals were placed into wire mesh bottom cages allowing access to the underside of their paws. Animals were habituated to this environment prior to the start of the experiment. Static allodynia was tested by touching the plantar surface of the animals right hind paw with von Frey hairs in ascending order of force (0.7, 1.2, 1.5, 2, 3.6, 5.5, 8.5, 11.8, 15.1 and 29 g) for up to 6 sec. Once a withdrawal response was established, the paw was re-tested, starting with the next descending von Frey hair until no response occurred. The highest force of 29 g lifted the paw as well as eliciting a response, thus represented the cut off point. The lowest amount of force required to elicit a response was recorded as the PWT in grams.

[2] = tested on: CCI-induced dynamic allodynia; assay: CCI-induced dynamic allodynia, paw withdrawal latency to cotton bud stimulus; type: in vivo, rat; conditions: for blockade of dynamic allodynia: alone; for minimum effective dose (MED), blockade of maintenance of dynamic allodynia: administered alone, gabapentin p.o., sildenafil s.c.; for time of peak antiallodynic actions: post administration, CCI-induced dynamic model
Method: Male Sprague Dawley rats (200-250 g), obtained from Charles River, (Margate, Kent, U.K.) were housed in groups of 6. All animals were kept under a 12 h light/dark cycle (lights on at 07 h 00 min) with food and water ad libitum. All experiments were carried out by an observer unaware of drug treatments. Animals were anaesthetised with isoflurane. The sciatic nerve was ligated as previously described by Bennett and Xie, 1988. Animals were placed on a homeothermic blanket for the duration of the procedure. After surgical preparation the common sciatic nerve was exposed at the middle of the thigh by blunt dissection through biceps femoris. Proximal to the sciatic trifurcation, about 7 mm of nerve was freed of adhering tissue and 4 ligatures (4-0 silk) were tied loosely around it with about 1 mm spacing. The incision was closed in layers and the wound treated with topical antibiotics. […] Combinations were examined following a fixed ratio design. A dose-response to each fixed dose ratio of the combination was performed. On each test day, baseline paw withdrawal thresholds (PWT) to von Frey hairs and paw withdrawal latencies (PWL) to a cotton bud stimulus were determined prior to drug treatment. […] Dynamic allodynia was assessed by lightly stroking the plantar surface of the hind paw with a cotton bud. Care was taken to perform this procedure in fully habituated rats that were not active to avoid recording general motor activity. At least three measurements were taken at each time point the mean of which represented the paw withdrawal latency (PWL). […] Thus 15 s effectively represents no withdrawal. A withdrawal response was often accompanied with repeated flinching or licking of the paw. Dynamic allodynia was considered to be present if animals responded to the cotton stimulus before 8 s of stroking.

[3] = tested on: CCI-induced static allodynia; assay: CCI-induced static allodynia, paw withdrawal threshold to von Frey hairs; type: in vivo, rat; conditions: Table 1; ratio 1:0, pregabalin 30 mg/kg alone

CCC[C@@H](C)C[C@H](N)CC(=O)O.Cl
melting point: 142.5 to 142.7 °C

CCCC(C)(C)CC(CN)C(=O)O.Cl (centres unmarked)
melting point: 229.5 to 231 °C

CCCC[C@@H](C)C[C@H](N)CC(=O)O (as salt: hydrochloride)
melting point: 142.5 to 143.3 °C

CCC[C@@H](C)C[C@H](CN)C(=O)O (as salt: hydrochloride)
melting point: 226.3 to 228 °C

CCCC(C)(C)C[C@H](N)CC(=O)O (as salt: hydrochloride) (hydrate or solvate)
melting point: 194.2 to 195.2 °C

CCCOc1ccc(S(=O)(=O)N2CCN(CC)CC2)cc1-c1nc2c(CC)n(Cc3ccccn3)nc2c(=O)[nH]1 [Compound AA, 3-Ethyl-5-[5-(4-ethyl-piperazine-1-sulfonyl)-2-propoxy-phenyl]-2-pyridin-2-ylmethyl-2,6-dihydro-pyrazolo[4,3-d]pyrimidin-7-one]
% reversal of allodynia ([1]; Table 2, ratio 0:1, 30 mg/kg alone (dose column headed Sildenafil)): 50% | time of peak antiallodynic actions [1]: 2 h

NCC1(CC(=O)O)CCCCC1 [Gabapentin, 1-(aminomethyl)-cyclohexylacetic acid]
blockade of dynamic allodynia ([2]; 100 mg/kg p.o.): complete blockade | minimum effective dose (MED), blockade of maintenance of dynamic allodynia [2]: 10 mg/kg | time of peak antiallodynic actions [2]: 2 h | blockade of static allodynia ([1]; 100 mg/kg p.o.): complete blockade | % reversal of allodynia ([1]; Table 2, ratio 1:0, gabapentin 100 mg/kg alone): 100% | minimum effective dose (MED), blockade of maintenance of static allodynia [1]: 10 mg/kg | time of peak antiallodynic actions [1]: 2 h

CC(C)C[C@H](CN)CC(=O)O [Pregabalin, (S)-(+)-4-amino-3-(2-methylpropyl)butanoic acid]
time of peak antiallodynic actions [1]: 2 h | % reversal of allodynia [3]: 100%

CCCc1nn(C)c2c(=O)[nH]c(-c3cc(S(=O)(=O)N4CCN(C)CC4)ccc3OCC)nc12 [Sildenafil, 5-[2-ethoxy-5-(4-methyl-1-piperazinylsulphonyl)phenyl]-1-methyl-3-n-propyl-1,6-dihydro-7H-pyrazolo[4,3-d]pyrimidin-7-one]
blockade of dynamic allodynia ([2]; 30 mg/kg s.c. (MED)): 25% | minimum effective dose (MED), blockade of maintenance of dynamic allodynia [2]: 30 mg/kg | time of peak antiallodynic actions [2]: 2 h | blockade of static allodynia ([1]; 30 mg/kg s.c.): ~60% | % reversal of allodynia ([1]; Table 1, ratio 0:1, sildenafil 30 mg/kg alone): 50% | minimum effective dose (MED), blockade of maintenance of static allodynia [1]: 10 mg/kg | time of peak antiallodynic actions [1]: 2 h
